Laboratory results from patent publication EP4038059B1, “SUBSTITUTED CARBAZOLE COMPOUNDS” (Bristol-Myers Squibb Company, priority 2019, dated 2021).

Tests used:
Format in all cases: cell-based
human TLR8 = molecular target: T1, human TLR8 (Homo sapiens, UniProt Q9NR97); experiment: TLR8 inhibition reporter assay (HEK-Blue SEAP); conditions: HEK-Blue cells overexpressing human TLR8, stimulated with R848 15.9 µM, 22 h incubation
T1 construct: host or cells: HEK-Blue cells
T1 sequence (Q9NR97 27-1041): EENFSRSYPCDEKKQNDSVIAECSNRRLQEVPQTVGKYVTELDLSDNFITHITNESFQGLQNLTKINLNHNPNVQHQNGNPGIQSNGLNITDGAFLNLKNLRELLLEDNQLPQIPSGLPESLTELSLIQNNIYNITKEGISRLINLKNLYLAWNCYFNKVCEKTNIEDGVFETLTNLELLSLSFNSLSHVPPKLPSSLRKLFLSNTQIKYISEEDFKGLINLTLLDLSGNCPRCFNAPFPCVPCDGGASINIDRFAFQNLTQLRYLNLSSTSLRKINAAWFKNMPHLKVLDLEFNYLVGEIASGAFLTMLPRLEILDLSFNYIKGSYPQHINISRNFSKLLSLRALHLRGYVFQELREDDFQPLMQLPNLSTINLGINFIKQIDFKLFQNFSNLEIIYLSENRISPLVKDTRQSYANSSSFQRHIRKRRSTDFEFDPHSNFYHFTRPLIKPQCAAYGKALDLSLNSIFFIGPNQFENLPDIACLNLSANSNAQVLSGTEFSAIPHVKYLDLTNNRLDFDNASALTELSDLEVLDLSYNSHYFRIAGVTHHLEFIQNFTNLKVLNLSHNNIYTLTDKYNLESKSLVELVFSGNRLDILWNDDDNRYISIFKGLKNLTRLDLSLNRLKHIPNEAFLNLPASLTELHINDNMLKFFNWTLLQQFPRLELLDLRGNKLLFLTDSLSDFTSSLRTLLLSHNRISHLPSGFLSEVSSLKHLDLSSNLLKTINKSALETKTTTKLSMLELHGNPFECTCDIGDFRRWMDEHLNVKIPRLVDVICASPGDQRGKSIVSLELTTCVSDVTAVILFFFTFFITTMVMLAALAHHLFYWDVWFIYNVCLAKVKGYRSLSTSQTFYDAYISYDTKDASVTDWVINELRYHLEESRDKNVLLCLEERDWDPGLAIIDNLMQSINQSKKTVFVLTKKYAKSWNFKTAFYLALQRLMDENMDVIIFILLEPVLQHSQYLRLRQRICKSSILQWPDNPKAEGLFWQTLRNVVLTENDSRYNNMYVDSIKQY
Method: (§1) HEK-Blue™-cells (Invivogen) overexpressing human TLR7, TLR8 or TLR9 receptors were used for screening inhibitors of these receptors using an inducible SEAP (secreted embryonic alkaline phosphatase) reporter gene under the control of the IFN-β minimal promoter fused to five NF-κB and AP-1-binding sites. Briefly, cells are seeded into Greiner 384 well plates (15000 cells per well for TLR7, 20,000 for TLR8 and 25,000 for TLR9) and then treated with test compounds in DMSO to yield a final dose response concentration range of 0.05 nM - 50 µM. After a 30 minute compound pre-treatment at room temperature, the cells are then stimulated with a TLR7 ligand (gardiquimod at a final concentration of 7.5 µM), TLR8 ligand (R848 at a final concentration of 15.9 µM) or TLR9 ligand (ODN2006 at a final concentration of 5 nM) to activate NF-κB and AP-1 which induce the production of SEAP. After a 22 h incubation at 37°C, 5% CO2, SEAP levels are determined with the addition of HEK-Blue™ Detection reagent (Invivogen), a cell culture medium that allows for detection of SEAP, according to manufacturer's specifications. The percent inhibition is determined as the % reduction in the HEK-Blue signal present in wells treated with agonist plus DMSO alone compared to wells treated with a known inhibitor.

human TLR7 = molecular target: T2, human TLR7 (Homo sapiens, UniProt Q9NYK1); experiment: TLR7 inhibition reporter assay (HEK-Blue SEAP); conditions: HEK-Blue cells overexpressing human TLR7, stimulated with gardiquimod 7.5 µM, 22 h incubation
T2 construct: host or cells: HEK-Blue cells
T2 sequence (Q9NYK1 27-1049): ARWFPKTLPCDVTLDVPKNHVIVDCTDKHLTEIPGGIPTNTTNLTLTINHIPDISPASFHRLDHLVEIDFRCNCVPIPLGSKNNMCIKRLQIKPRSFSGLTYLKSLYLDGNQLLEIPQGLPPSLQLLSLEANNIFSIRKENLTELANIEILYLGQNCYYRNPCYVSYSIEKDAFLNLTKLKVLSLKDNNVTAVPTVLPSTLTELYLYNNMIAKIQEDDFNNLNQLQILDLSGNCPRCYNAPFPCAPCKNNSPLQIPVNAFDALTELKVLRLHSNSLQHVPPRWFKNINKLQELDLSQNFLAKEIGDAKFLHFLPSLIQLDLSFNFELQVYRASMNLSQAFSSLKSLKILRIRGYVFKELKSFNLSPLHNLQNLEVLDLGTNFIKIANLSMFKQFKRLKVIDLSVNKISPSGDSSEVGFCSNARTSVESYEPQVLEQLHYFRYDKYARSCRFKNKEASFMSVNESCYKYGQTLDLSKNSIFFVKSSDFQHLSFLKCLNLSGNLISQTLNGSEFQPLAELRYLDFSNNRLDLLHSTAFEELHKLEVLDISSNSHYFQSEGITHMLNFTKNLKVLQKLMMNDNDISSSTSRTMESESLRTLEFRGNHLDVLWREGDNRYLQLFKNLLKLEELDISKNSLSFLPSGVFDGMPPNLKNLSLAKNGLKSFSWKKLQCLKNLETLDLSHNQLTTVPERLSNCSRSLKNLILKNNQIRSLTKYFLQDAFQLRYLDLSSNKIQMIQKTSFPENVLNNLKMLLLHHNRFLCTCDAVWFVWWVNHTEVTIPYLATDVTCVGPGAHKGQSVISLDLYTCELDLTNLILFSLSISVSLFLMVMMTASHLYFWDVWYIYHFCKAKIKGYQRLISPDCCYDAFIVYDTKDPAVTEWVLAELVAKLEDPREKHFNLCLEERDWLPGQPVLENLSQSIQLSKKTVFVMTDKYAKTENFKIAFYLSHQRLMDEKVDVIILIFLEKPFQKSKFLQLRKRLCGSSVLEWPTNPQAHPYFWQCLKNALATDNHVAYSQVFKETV
Method: as §1

human TLR9 = molecular target: T3, human TLR9 (Homo sapiens, UniProt Q9NR96); experiment: TLR9 inhibition reporter assay (HEK-Blue SEAP); conditions: HEK-Blue cells overexpressing human TLR9, stimulated with ODN2006 5 nM, 22 h incubation
T3 construct: host or cells: HEK-Blue cells
T3 sequence (Q9NR96 26-1032): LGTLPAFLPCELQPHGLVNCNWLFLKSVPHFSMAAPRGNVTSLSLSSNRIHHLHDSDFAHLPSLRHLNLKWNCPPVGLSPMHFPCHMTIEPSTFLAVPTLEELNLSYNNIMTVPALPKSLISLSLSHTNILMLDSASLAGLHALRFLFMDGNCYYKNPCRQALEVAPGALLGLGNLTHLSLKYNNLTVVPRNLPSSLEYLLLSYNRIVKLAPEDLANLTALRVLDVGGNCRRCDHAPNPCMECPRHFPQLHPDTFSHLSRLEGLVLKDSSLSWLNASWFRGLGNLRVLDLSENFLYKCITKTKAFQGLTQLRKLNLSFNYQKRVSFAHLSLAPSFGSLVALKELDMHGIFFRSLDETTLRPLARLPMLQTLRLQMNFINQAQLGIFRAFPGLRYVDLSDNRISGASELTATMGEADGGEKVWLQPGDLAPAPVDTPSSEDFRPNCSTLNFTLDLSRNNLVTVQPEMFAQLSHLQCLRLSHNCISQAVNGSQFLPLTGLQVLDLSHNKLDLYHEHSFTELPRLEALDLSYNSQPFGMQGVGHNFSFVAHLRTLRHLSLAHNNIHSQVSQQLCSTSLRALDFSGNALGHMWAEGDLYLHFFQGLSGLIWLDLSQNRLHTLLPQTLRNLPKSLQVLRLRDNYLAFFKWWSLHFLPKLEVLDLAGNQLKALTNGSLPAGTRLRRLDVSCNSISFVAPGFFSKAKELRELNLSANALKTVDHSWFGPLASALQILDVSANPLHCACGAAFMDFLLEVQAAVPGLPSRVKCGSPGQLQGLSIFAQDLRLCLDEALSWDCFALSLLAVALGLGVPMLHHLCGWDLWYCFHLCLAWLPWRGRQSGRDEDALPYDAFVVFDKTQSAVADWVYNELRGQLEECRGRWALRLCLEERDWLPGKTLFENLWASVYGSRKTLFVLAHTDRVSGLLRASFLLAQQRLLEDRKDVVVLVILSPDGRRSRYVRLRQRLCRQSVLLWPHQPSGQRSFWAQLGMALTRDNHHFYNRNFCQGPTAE
Method: as §1

IC50 (human TLR8) | IC50 (human TLR7) | IC50 (human TLR9) | SMILES
4 nM | 11 nM | 1240 nM | COc1cc(-c2cc3[nH]c4ccc(C5CN(CC#N)C5)cc4c3c(C)c2C)cn2ncnc12 [Example 39]
0.8 nM | 0.8 nM | 95 nM | COc1cc(-c2cc3[nH]c4ccc(C5CCNCC5)cc4c3c(C)c2C)cn2ncnc12 [Example 15, 2-(8-Methoxy-[1,2,4]triazolo[1,5-a]pyridin-6-yl)-3,4-dimethyl-6-(piperidin-4-yl)-9H-carbazole]
0.4 nM | 2.5 nM | 514 nM | COc1cc(-c2cc3[nH]c4ccc(C5CN(CC(C)(C)O)C5)cc4c3c(C)c2C)cn2ncnc12 [Example 38]
358 nM | 109 nM | 668 nM | Cc1cc(-c2ccc3c(c2)[nH]c2ccc(C4CCNCC4)cc23)cn2ncnc12 [Example 3, 2-(8-methyl-[1,2,4]triazolo[1,5-a]pyridin-6-yl)-6-(piperidin-4-yl)-9H-carbazole]
> 3130 nM | > 3130 nM | 1050 nM | CN1CCC(c2ccc3c(c2)[nH]c2ccc(C4CCNCC4)cc23)CC1=O (stereo not drawn) [Example 6, 1-methyl-4-(6-(piperidin-4-yl)-9H-carbazol-2-yl)piperidin-2-one]
1.5 nM | 68 nM | 388 nM | Cc1cc2c(cc1-c1cn(C)c(=O)c(C)c1C)[nH]c1ccc(C3CCN(CC(C)(C)O)CC3)cc12 [Example 24]
0.7 nM | 1.6 nM | 342 nM | Cc1cc2c(cc1-c1cc(C)c3ncnn3c1)[nH]c1ccc(C3CCN(CC(C)(C)O)CC3)cc12 [Example 22]
1 nM | 5.5 nM | 813 nM | COc1cc(-c2cc3[nH]c4ccc(C5CN(CCS(C)(=O)=O)C5)cc4c3c(C)c2C)cn2ncnc12 [Example 30, 2-(8-methoxy-[1,2,4]triazolo[1,5-a]pyridin-6-yl)-3,4-dimethyl-6-(1-(2-(methylsulfonyl)ethyl)azetidin-3-yl)-9H-carbazole]
6.8 nM | 1.4 nM | 153 nM | COc1cc(-c2cc(C)c3c(c2)[nH]c2ccc(C4CCNCC4)cc23)cn2ncnc12 [Example 12]
103 nM | 22 nM | 53 nM | Cc1cc(-c2ccc3c(c2)[nH]c2ccc(C4CCNCC4)cc23)cc(C)n1 [Example 2, 2-(2,6-Dimethylpyridin-4-yl)-6-(piperidin-4-yl)-9H-carbazole]
1.4 nM | 1.9 nM | 108 nM | COc1cc(-c2cc3[nH]c4ccc(C5CCNCC5)cc4c3cc2C)cn2ncnc12 [Example 17]
0.7 nM | 7.8 nM | 523 nM | COc1cc(-c2cc3[nH]c4ccc(C5CCCN(C6CCOCC6)C5)cc4c3c(C)c2C)cn2ncnc12 (stereo not drawn) [Example 28, 2-(8-methoxy-[1,2,4]triazolo[1,5-a]pyridin-6-yl)-3,4-dimethyl-6-(1-(tetrahydro-2H-pyran-4-yl)piperidin-3-yl)-9H-carbazole]
3.8 nM | 3.3 nM | 1170 nM | COc1cc(-c2cc3[nH]c4ccc(C5CCCN(C(=O)CN(C)C)C5)cc4c3c(C)c2C)cn2ncnc12 (stereo not drawn) [Example 27, 2-(dimethylamino)-1-(3-(7-(8-methoxy-[1,2,4]triazolo[1,5-a]pyridin-6-yl)-5,6-dimethyl-9H-carbazol-3-yl)piperidin-1-yl)ethan-1-one]
5.5 nM | 35 nM | 158 nM | Cc1cc2c(cc1-c1cn(C)c(=O)c(C)c1C)[nH]c1ccc(C3CCNCC3)cc12 [Example 16]
4 nM | 1.8 nM | 416 nM | Cc1cc(-c2cc(C)c3ncnn3c2)cc2[nH]c3ccc(C4CCN(CC(C)(C)O)CC4)cc3c12 [Example 19]
1.8 nM | 5.6 nM | 861 nM | COc1cc(-c2cc3[nH]c4ccc(C5CN(C6COC6)C5)cc4c3c(C)c2C)cn2ncnc12 [Example 36]
1.4 nM | 1.2 nM | 318 nM | Cc1cc2c(cc1-c1cc(C)c3ncnn3c1)[nH]c1ccc(C3CCNCC3)cc12 [Example 14, 3-methyl-2-(8-methyl-[1,2,4]triazolo[1,5-a]pyridin-6-yl)-6-(piperidin-4-yl)-9H-carbazole]
0.4 nM | 1.8 nM | 264 nM | COc1cc(-c2cc3[nH]c4ccc(C5CCN(CC(C)(C)O)CC5)cc4c3c(C)c2C)cn2ncnc12 [Example 25]
